# Columns and labels:
# Test in all cases: Cell viability drug screen, 12-point dose-response AUC
# Assay type in all cases: cell-based, human
# FU97 = tested on: FU97; set-up: Average Area Under the Viability Curve (AUC), AUC norm value: scale not given here; settings: FU97 cells; 72 hours
# Experimental: (§1) Cells cultured for cell-based drug assay were inoculated into a 96-well white optical plate (Corning) at 5×10^3 cells per well. After 24 hours after inoculation, a 2.5 MJT (primary screen) or a half-log 12-serial diluent (secondary screen) of the pharmacological compound contained in DMSO is added to the cells with a robot using a BioMek FXp liquid processor (Beckman) to add to the cells at 50 mM. The final drug concentration in the 5 ns range and the DMSO specification control (0.5%) were calculated. The cells were then further incubated at 37° C. in a 5% CO2 incubator for 72 hours prior to measuring cell viability using the extra-GLO assay kit (Promega). The luminescent properties were measured after 15 min incubation at room temperature using a plate stacker equipped with a plate stacker. The normalized viability for the DMSO-based control was measured to generate a cell line-specific 12-point dose-response curve for each pharmacological compound, and then the area under the curve (AUC) was calculated using a trapezoidal method.
# NCC19 = NCC19 cells; 72 hours
# Experimental: (§2) An FDA-approved small-molecule pharmacological compound (#L1300) and an anticancer compound for research (#L2000) were purchased from Selecckchem and a 10 mM solution was prepared in DMSO. A total of 1,345 compounds were tested the cell viability of the seven EMT gastric cancer cell lines.
# as §1, with “method. […] The results of the repeated experiments were averaged to generate AUC values for each cell line for each compound.” for “method.”
# OCUM1 = OCUM1 cells; 72 hours
# Experimental: as §2
# as §1, with “method. […] The results of the repeated experiments were averaged to generate AUC values for each cell line for each compound.” for “method.”
# MKN74 = MKN74 cells; 72 hours
# Experimental: as §2
# as §1, with “method. […] The results of the repeated experiments were averaged to generate AUC values for each cell line for each compound.” for “method.”
# SNU638 = SNU638 cells; 72 hours
# Experimental: as §2
# as §1, with “method. […] The results of the repeated experiments were averaged to generate AUC values for each cell line for each compound.” for “method.”
# YCC2 = YCC2 cells; 72 hours
# Experimental: as §2
# as §1, with “method. […] The results of the repeated experiments were averaged to generate AUC values for each cell line for each compound.” for “method.”
# NCC24 = NCC24 cells; 72 hours
# Experimental: as §2
# as §1, with “method. […] The results of the repeated experiments were averaged to generate AUC values for each cell line for each compound.” for “method.”
# MKN1 = MKN1 cells; 72 hours
# Experimental: as §2
# as §1, with “method. […] The results of the repeated experiments were averaged to generate AUC values for each cell line for each compound.” for “method.”
# SNU1750 = SNU1750 cells (SEM subtype); 72 hours
# Experimental: as §2
# as §1, with “method. […] The results of the repeated experiments were averaged to generate AUC values for each cell line for each compound.” for “method.”
# SNU668 = SNU668 cells (SEM subtype); 72 hours
# Experimental: as §2
# as §1, with “method. […] The results of the repeated experiments were averaged to generate AUC values for each cell line for each compound.” for “method.”
# MKN45 = MKN45 cells (non-SEM subtype); 72 hours
# Experimental: as §2
# as §1, with “method. […] The results of the repeated experiments were averaged to generate AUC values for each cell line for each compound.” for “method.”
# YCC11 = YCC11 cells (SEM subtype); 72 hours
# Experimental: as §2
# as §1, with “method. […] The results of the repeated experiments were averaged to generate AUC values for each cell line for each compound.” for “method.”
# SNU16 = SNU16 cells; 72 hours
# Experimental: as §2
# as §1, with “method. […] The results of the repeated experiments were averaged to generate AUC values for each cell line for each compound.” for “method.”
# YCC3 = YCC3 cells; 72 hours
# Experimental: as §2
# as §1, with “method. […] The results of the repeated experiments were averaged to generate AUC values for each cell line for each compound.” for “method.”
# SK4 = SK4 cells (SEM subtype); 72 hours
# Experimental: as §2
# as §1, with “method. […] The results of the repeated experiments were averaged to generate AUC values for each cell line for each compound.” for “method.”
# SNU620 = SNU620 cells; 72 hours
# Experimental: as §2
# as §1, with “method. […] The results of the repeated experiments were averaged to generate AUC values for each cell line for each compound.” for “method.”
# SNU216 = SNU216 cells (non-SEM subtype); 72 hours
# Experimental: as §2
# as §1, with “method. […] The results of the repeated experiments were averaged to generate AUC values for each cell line for each compound.” for “method.”
# MKN28 = MKN28 cells; 72 hours
# Experimental: as §2
# as §1, with “method. […] The results of the repeated experiments were averaged to generate AUC values for each cell line for each compound.” for “method.”
# SNU1 = SNU1 cells; 72 hours
# Experimental: as §2
# as §1, with “method. […] The results of the repeated experiments were averaged to generate AUC values for each cell line for each compound.” for “method.”
# NCI_N87 = NCI_N87 cells; 72 hours
# Experimental: as §2
# as §1, with “method. […] The results of the repeated experiments were averaged to generate AUC values for each cell line for each compound.” for “method.”
# SNU1967 = SNU1967 cells; 72 hours
# Experimental: as §2
# as §1, with “method. […] The results of the repeated experiments were averaged to generate AUC values for each cell line for each compound.” for “method.”
# SNU719 = SNU719 cells; 72 hours
# Experimental: as §2
# as §1, with “method. […] The results of the repeated experiments were averaged to generate AUC values for each cell line for each compound.” for “method.”
# NCC59 = NCC59 cells; 72 hours
# Experimental: as §2
# as §1, with “method. […] The results of the repeated experiments were averaged to generate AUC values for each cell line for each compound.” for “method.”
# SNU484 = SNU484 cells (SEM subtype); 72 hours
# Experimental: as §2
# as §1, with “method. […] The results of the repeated experiments were averaged to generate AUC values for each cell line for each compound.” for “method.”
# SNU601 = SNU601 cells; 72 hours
# Experimental: as §2
# as §1, with “method. […] The results of the repeated experiments were averaged to generate AUC values for each cell line for each compound.” for “method.”
# NCC20 = NCC20 cells; 72 hours
# Experimental: as §2
# as §1, with “method. […] The results of the repeated experiments were averaged to generate AUC values for each cell line for each compound.” for “method.”
# AGS = AGS cells (non-SEM subtype); 72 hours
# Experimental: as §2
# as §1, with “method. […] The results of the repeated experiments were averaged to generate AUC values for each cell line for each compound.” for “method.”
# Hs746T = Hs746T cells (SEM subtype); 72 hours
# Experimental: as §2
# as §1, with “method. […] The results of the repeated experiments were averaged to generate AUC values for each cell line for each compound.” for “method.”
# KATO3 = KATO3 cells; 72 hours
# Experimental: as §2
# as §1, with “method. […] The results of the repeated experiments were averaged to generate AUC values for each cell line for each compound.” for “method.”
structure (smiles),measurement,setting,value
CC[C@@]1(O)C(=O)OCc2c1cc1n(c2=O)Cc2cc3ccccc3nc2-1 [Camptothecin],"Average Area Under the Viability Curve (AUC), AUC norm value",FU97,1.097
same,"Average Area Under the Viability Curve (AUC), AUC norm value",NCC19,0.9854
same,"Average Area Under the Viability Curve (AUC), AUC norm value",OCUM1,−0.5033
same,"Average Area Under the Viability Curve (AUC), AUC norm value",MKN74,−0.08807
same,"Average Area Under the Viability Curve (AUC), AUC norm value",SNU638,−0.9365
same,"Average Area Under the Viability Curve (AUC), AUC norm value",YCC2,0
same,"Average Area Under the Viability Curve (AUC), AUC norm value",NCC24,0.5273
same,"Average Area Under the Viability Curve (AUC), AUC norm value",MKN1,−0.642
same,"Average Area Under the Viability Curve (AUC), AUC norm value",SNU1750,0.02348
same,"Average Area Under the Viability Curve (AUC), AUC norm value",SNU668,−1.202
same,"Average Area Under the Viability Curve (AUC), AUC norm value",MKN45,0.1203
same,"Average Area Under the Viability Curve (AUC), AUC norm value",YCC11,−0.5718
same,"Average Area Under the Viability Curve (AUC), AUC norm value",SNU16,−1.529
same,"Average Area Under the Viability Curve (AUC), AUC norm value",YCC3,1.3493
same,"Average Area Under the Viability Curve (AUC), AUC norm value",SK4,−0.8823
same,"Average Area Under the Viability Curve (AUC), AUC norm value",SNU620,−1.867
same,"Average Area Under the Viability Curve (AUC), AUC norm value",SNU216,1.3094
same,"Average Area Under the Viability Curve (AUC), AUC norm value",MKN28,0.3881
same,"Average Area Under the Viability Curve (AUC), AUC norm value",SNU1,−2.182
same,"Average Area Under the Viability Curve (AUC), AUC norm value",NCI_N87,0.7261
same,"Average Area Under the Viability Curve (AUC), AUC norm value",SNU1967,−1.86
same,"Average Area Under the Viability Curve (AUC), AUC norm value",SNU719,3.079
same,"Average Area Under the Viability Curve (AUC), AUC norm value",NCC59,1.208
same,"Average Area Under the Viability Curve (AUC), AUC norm value",SNU484,1.047
same,"Average Area Under the Viability Curve (AUC), AUC norm value",SNU601,−1.853
same,"Average Area Under the Viability Curve (AUC), AUC norm value",NCC20,−1.829
same,"Average Area Under the Viability Curve (AUC), AUC norm value",AGS,−1.989
same,"Average Area Under the Viability Curve (AUC), AUC norm value",Hs746T,0.3026
same,"Average Area Under the Viability Curve (AUC), AUC norm value",KATO3,4.769
